Columns and labels:
Format in all cases: cell-based, murine
[1] = molecular target: EGFR mutant L858R Ba/F3 cells (Homo sapiens, UniProt P00533, L858R, cells depend on it); assay: Ba/F3 cell proliferation (Cell Titer Glo), EGFR L858R; details: 72 hours exposure, read-out: L858R BaF3 (μM), inhibitory activity against EGFR mutants
Method in brief: (§1)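 Ba/F3 cells stably expressing retrovirally transduced EGFR L858R, L858R/C797S or L858R/C775S, puromycin-selected. Compound exposure 72 hours in triplicate; viability by Cell Titer Glo ATP luminescence.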

[2] = molecular target: EGFR L858R/C797S Ba/F3 cells (Homo sapiens, UniProt P00533, C797S/L858R, cells depend on it); assay: Ba/F3 cell proliferation (Cell Titer Glo), EGFR L858R/C797S; details: 72 hours exposure, read-out: L858R/C797S (μM), inhibitory activity against EGFR mutants
EGFR L858R/C797S Ba/F3 cells, sequence (P00533 whole entry C797S/L858R): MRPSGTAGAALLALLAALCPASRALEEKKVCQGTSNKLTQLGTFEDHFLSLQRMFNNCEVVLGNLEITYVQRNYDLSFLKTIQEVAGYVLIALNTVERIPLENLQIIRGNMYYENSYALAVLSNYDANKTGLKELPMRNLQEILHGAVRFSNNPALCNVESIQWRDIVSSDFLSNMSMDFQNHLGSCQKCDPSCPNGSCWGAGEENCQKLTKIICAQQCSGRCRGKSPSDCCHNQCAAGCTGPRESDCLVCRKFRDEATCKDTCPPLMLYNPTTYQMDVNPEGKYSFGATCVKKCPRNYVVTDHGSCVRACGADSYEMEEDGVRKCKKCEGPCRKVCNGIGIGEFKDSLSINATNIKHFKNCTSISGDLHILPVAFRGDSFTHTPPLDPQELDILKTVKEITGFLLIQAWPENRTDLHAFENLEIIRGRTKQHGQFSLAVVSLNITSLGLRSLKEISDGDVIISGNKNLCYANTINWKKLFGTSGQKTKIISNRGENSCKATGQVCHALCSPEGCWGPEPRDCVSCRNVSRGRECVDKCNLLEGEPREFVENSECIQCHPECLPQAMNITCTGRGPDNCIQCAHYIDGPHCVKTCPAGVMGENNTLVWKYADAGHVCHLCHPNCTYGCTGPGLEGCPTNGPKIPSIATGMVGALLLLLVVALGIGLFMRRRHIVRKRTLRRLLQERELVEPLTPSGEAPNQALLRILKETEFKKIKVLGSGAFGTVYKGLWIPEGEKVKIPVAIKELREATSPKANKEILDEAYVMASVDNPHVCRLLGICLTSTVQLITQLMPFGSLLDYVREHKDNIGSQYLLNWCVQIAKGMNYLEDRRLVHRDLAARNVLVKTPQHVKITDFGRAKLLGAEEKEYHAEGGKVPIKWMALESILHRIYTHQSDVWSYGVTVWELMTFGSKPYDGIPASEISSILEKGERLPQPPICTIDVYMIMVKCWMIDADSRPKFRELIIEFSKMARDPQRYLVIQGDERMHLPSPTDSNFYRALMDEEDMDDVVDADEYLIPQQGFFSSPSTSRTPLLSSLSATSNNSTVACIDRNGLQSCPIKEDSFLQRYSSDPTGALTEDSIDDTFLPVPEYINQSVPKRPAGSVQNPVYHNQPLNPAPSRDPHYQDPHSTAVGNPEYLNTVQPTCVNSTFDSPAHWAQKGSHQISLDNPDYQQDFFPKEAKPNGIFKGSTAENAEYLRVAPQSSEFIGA
Method in brief: as §1

[3] = molecular target: EGFR L858R/C775S Ba/F3 cells (Homo sapiens, UniProt P00533, C775S/L858R, cells depend on it); assay: Ba/F3 cell proliferation (Cell Titer Glo), EGFR L858R/C775S; details: 72 hours exposure, read-out: L858R/C775S (μM), inhibitory activity against EGFR mutants
EGFR L858R/C775S Ba/F3 cells, sequence (P00533 whole entry C775S/L858R, the tested form may be a part): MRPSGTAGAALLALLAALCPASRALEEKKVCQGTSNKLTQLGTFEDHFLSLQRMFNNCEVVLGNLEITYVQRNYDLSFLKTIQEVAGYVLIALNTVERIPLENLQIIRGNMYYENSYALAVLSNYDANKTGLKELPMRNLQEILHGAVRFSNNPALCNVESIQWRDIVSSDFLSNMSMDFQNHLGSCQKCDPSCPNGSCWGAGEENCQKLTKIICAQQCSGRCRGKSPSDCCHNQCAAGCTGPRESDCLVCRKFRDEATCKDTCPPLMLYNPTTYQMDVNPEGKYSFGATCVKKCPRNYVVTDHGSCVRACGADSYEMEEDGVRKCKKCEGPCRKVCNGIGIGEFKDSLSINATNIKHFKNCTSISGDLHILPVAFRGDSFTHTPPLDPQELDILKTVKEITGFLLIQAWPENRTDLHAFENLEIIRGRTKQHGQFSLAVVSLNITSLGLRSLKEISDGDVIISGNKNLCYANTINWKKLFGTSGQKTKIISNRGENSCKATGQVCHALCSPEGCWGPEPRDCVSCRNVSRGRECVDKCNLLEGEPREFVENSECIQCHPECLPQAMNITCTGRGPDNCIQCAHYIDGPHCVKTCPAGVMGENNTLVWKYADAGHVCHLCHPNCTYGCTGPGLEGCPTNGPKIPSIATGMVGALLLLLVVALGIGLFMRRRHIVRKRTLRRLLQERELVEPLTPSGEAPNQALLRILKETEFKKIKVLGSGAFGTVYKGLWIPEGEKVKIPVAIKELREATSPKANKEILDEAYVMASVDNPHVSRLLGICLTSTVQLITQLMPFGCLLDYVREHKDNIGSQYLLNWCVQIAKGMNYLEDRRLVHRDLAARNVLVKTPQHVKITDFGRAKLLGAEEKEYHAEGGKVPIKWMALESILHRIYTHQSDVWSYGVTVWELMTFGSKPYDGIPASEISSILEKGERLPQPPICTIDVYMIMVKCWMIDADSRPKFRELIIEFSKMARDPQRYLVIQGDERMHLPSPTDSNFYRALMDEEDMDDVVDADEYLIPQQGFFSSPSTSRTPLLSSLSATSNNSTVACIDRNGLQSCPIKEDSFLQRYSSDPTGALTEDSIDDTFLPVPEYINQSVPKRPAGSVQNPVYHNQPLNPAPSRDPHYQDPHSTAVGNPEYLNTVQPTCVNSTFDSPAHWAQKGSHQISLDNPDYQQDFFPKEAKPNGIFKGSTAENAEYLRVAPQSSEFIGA
Text: The EGFR mutant L858R Ba/F3 cells have been previously described (Zhou, W., et al. Nature 462, 2009, 1070-1074). The EGFR C797S and C775S mutations were introduced via site directed mutagenesis using the Quick Change Site-Directed Mutagenesis kit into a vector containing EGFR L858R mutation (Stratagene; La Jolla, CA) according to the manufacturer's instructions. All constructs were confirmed by DNA sequencing. The constructs were then shuttled into the retroviral vector JP1540 by either using the Cre-recombination system (Agilent Technologies, Santa Clara, CA) or the In-fusion HD Cloning kit (Takara Bio USA, Inc.; Mountain view, CA). Ba/F3 cells were then infected with retrovirus per standard protocols, as described previously (Zhou, et al, Nature 2009). Stable clones were obtained by selection in puromycin (2 ug/ml). All BaF/3 mutant cells were maintained in RPMI 1640 (Cellgro; Mediatech Inc., Herndon, CA) supplemented with 10% FBS, 100 units/mL penicillin, 100 units/mL streptomycin.
Growth and inhibition of growth was assessed by the Cell Titer Glo assay (Promega, Madison, WI) and was performed according to the manufacturer's instructions. The Cell Titer Glo assay is a luminescence-based method used to determine the number of viable cells based on quantitation of the ATP present, which is directly proportional to the amount of metabolically active cells present. Ba/F3 cells of different EGFR genotypes were exposed to compounds for 72 hours and the number of cells used per experiment was determined empirically as has been previously established (Zhou, et al., Nature 2009). All experimental points were set up in triplicates in 384-well plates. […] The curves were fitted using a non-linear regression model with a sigmoidal dose response.
For inhibitory activity against EGFR mutants, the following designations are used: ≤0·25 μM=A, 0·25 μM˜0.5 μM=B, 0.5 μM˜2.5 μM=C, ≥2.5 μM=D.

EGFR mutant L858R Ba/F3 cells, sequence (P00533 whole entry L858R): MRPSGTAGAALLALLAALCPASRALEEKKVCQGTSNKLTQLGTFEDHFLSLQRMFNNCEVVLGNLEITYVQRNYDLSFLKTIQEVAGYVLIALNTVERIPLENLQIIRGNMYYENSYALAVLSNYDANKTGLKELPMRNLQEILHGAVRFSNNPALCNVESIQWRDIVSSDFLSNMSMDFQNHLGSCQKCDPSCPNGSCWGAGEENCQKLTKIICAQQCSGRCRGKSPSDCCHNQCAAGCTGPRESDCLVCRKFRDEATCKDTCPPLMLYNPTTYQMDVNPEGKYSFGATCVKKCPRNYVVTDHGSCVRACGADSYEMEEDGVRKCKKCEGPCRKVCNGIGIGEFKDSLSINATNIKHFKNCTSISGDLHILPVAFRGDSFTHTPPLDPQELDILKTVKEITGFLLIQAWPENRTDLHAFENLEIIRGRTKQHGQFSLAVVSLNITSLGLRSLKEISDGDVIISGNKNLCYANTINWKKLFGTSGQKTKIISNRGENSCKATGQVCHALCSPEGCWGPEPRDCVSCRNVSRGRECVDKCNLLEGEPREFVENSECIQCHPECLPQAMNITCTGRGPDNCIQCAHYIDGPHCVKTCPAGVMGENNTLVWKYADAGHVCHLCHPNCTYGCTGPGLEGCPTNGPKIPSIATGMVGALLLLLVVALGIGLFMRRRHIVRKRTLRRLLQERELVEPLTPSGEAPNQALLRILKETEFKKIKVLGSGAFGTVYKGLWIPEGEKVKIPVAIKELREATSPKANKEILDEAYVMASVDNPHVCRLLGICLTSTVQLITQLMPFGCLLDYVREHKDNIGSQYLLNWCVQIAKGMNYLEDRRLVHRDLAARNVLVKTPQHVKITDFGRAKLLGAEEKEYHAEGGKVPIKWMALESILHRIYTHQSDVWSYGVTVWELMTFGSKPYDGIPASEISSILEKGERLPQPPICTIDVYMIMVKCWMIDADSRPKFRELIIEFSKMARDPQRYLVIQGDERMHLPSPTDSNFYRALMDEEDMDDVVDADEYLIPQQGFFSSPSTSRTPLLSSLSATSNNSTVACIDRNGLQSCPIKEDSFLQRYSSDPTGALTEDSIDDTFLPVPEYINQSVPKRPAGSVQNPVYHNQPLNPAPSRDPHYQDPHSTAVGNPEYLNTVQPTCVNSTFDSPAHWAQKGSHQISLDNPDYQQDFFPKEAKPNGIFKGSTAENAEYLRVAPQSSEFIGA

Row | GI50 [1] | GI50 [2] | GI50 [3] | SMILES
1 | ≥ 2.5 µM | ≥ 2.5 µM | ≥ 2.5 µM | C=CC(=O)N1CCN(c2cc3cnc(Nc4ccc(N5CCN(C)CC5)cc4)nc3n(C)c2=O)CC1 [Compound 009, 8-methyl-2-[4-(4-methylpiperazin-1-yl)anilino]-6-(4-prop-2-enoylpiperazin-1-yl)pyrido[2,3-d]pyrimidin-7-one]
2 | 0.5 to 2.5 µM | ≥ 2.5 µM | 0.5 to 2.5 µM | C=CC(=O)N1CCc2cccc(Oc3cc4cnc(Nc5ccc(N6CCN(C)CC6)cc5)nc4n(C)c3=O)c21 [Compound 003]
3 | 0.5 to 2.5 µM | ≥ 2.5 µM | ≥ 2.5 µM | C=CC(=O)Nc1ccccc1Oc1cc2cnc(Nc3ccc(N4CCN(C)CC4)cc3)nc2n(-c2cccc(NC(C)=O)c2)c1=O [Compound 008]
4 | 0.25 to 0.5 µM | 0.5 to 2.5 µM | ≥ 2.5 µM | C=CC(=O)Nc1ccccc1Oc1cc2cnc(Nc3ccc(N4CCN(C)CC4)cc3OC)nc2n(C)c1=O [Compound 004]
5 | ≤ 0.25 µM | 0.25 to 0.5 µM | ≥ 2.5 µM | C=CC(=O)Nc1ccccc1Oc1cc2cnc(Nc3ccc(N4CCN(C)CC4)cc3)nc2n(C)c1=O [Compound 002, N-[2-[8-methyl-2-[4-(4-methylpiperazin-1-yl)anilino]-7-oxo-pyrido[2,3-d]pyrimidin-6-yl]oxyphenyl]prop-2-enamide]
6 | 0.25 to 0.5 µM | 0.5 to 2.5 µM | 0.5 to 2.5 µM | C=CC(=O)Nc1ccccc1Cc1cc2cnc(Nc3ccc(N4CCN(C)CC4)cc3)nc2n(C)c1=O [Compound 001, N-[2-[[8-methyl-2-[4-(4-methylpiperazin-1-yl)anilino]-7-oxo-pyrido[2,3-d]pyrimidin-6-yl]methyl]phenyl]prop-2-enamide]
7 | ≤ 0.25 µM | ≤ 0.25 µM | ≥ 2.5 µM | C=CC(=O)N1CCN(c2cc3cnc(Nc4ccc(N5CCN(C)CC5)cc4)nc3n(C)c2=O)c2ccccc21 [Compound 010, 8-methyl-2-[4-(4-methylpiperazin-1-yl)anilino]-6-(4-prop-2-enoyl-2,3-dihydroquinoxalin-1-yl)pyrido[2,3-d]pyrimidin-7-one]
8 | 0.25 to 0.5 µM | ≥ 2.5 µM | ≥ 2.5 µM | C=CC(=O)Nc1ccccc1Oc1cc2cnc(Nc3ccc(N4CCN(C)CC4)cc3)nc2n(C2CCCN(C(C)=O)C2)c1=O (stereo not shown) [Compound 007, N-[2-[8-(1-acetyl-3-piperidyl)-2-[4-(4-methylpiperazin-1-yl)anilino]-7-oxo-pyrido[2,3-d]pyrimidin-6-yl]oxyphenyl]prop-2-enamide]
9 | ≤ 0.25 µM | ≤ 0.25 µM |  | C=CC(=O)N1CCN(c2cc3cnc(N)nc3n(-c3ccc(CN4CCOCC4)cc3)c2=O)c2cccc(C)c21 [Compound 094, 2-amino-6-(5-methyl-4-prop-2-enoyl-2,3-dihydroquinoxalin-1-yl)-8-[4-(morpholinomethyl)phenyl]pyrido[2,3-d]pyrimidin-7-one]
10 | 0.25 to 0.5 µM | ≥ 2.5 µM | ≥ 2.5 µM | C#CC(=O)Nc1ccccc1Oc1cc2cnc(Nc3ccc(N4CCN(C)CC4)cc3)nc2n(C)c1=O [Compound 006, N-[2-[8-methyl-2-[4-(4-methylpiperazin-1-yl)anilino]-7-oxo-pyrido[2,3-d]pyrimidin-6-yl]oxyphenyl]prop-2-ynamide]
11 | 0.25 to 0.5 µM | 0.5 to 2.5 µM |  | C=CC(=O)N1CCN(c2cc3cnc(N)nc3n(-c3ccc(N(C)CCN(C)C)cc3)c2=O)c2cccc(C)c21 [Compound 101, 2-amino-8-[4-[2-(dimethylamino)ethyl-methyl-amino]phenyl]-6-(5-methyl-4-prop-2-enoyl-2,3-dihydroquinoxalin-1-yl)pyrido[2,3-d]pyrimidin-7-one]
12 | ≤ 0.25 µM | ≤ 0.25 µM |  | C=CC(=O)N1CCN(c2cc3cnc(Nc4ccc(OCCN(C)C)cc4)nc3n(C3CC(F)(F)C3)c2=O)c2cccc(C)c21 [Compound 055, 8-(3,3-difluorocyclobutyl)-2-[4-[2-(dimethylamino)ethoxy]anilino]-6-(5-methyl-4-prop-2-enoyl-2,3-dihydroquinoxalin-1-yl)pyrido[2,3-d]pyrimidin-7-one]
13 | ≤ 0.25 µM | 0.25 to 0.5 µM |  | C=CC(=O)N1CCN(c2cc3cnc(N)nc3n(-c3cccc(Cl)c3)c2=O)c2cccc(C)c21 [Compound 091, 2-amino-8-(3-chlorophenyl)-6-(5-methyl-4-prop-2-enoyl-2,3-dihydroquinoxalin-1-yl)pyrido[2,3-d]pyrimidin-7-one]
14 | ≤ 0.25 µM | ≤ 0.25 µM |  | C=CC(=O)N1CCN(c2cc3cnc(Nc4ccc(N5CCN(C)CC5)cc4)nc3n(C)c2=O)c2cccc(N)c21 [Compound 065, 6-(5-amino-4-prop-2-enoyl-2,3-dihydroquinoxalin-1-yl)-8-methyl-2-[4-(4-methylpiperazin-1-yl)anilino]pyrido[2,3-d]pyrimidin-7-one]
15 | ≤ 0.25 µM | 0.25 to 0.5 µM |  | C=C(F)C(=O)N1CCN(c2cc3cnc(Nc4cnn(CCO)c4)nc3n(C)c2=O)c2ccccc21 [Compound 013, 6-[4-(2-fluoroprop-2-enoyl)-2,3-dihydroquinoxalin-1-yl]-2-[[1-(2-hydroxyethyl)pyrazol-4-yl]amino]-8-methyl-pyrido[2,3-d]pyrimidin-7-one]
16 | ≤ 0.25 µM | ≤ 0.25 µM |  | C=CC(=O)N1CCN(c2cc3cnc(Nc4ccccc4)nc3n([C@H]3C[C@@H](O)C3)c2=O)c2cccc(C)c21 [Compound 069]
17 | ≥ 2.5 µM | ≥ 2.5 µM |  | C=CC(=O)N1CCN(c2cc3cnc(Nc4cc5n(c4)CCN(C)C5)nc3n(C)c2=O)c2cccc(C)c21 [Compound 085, 8-methyl-2-[(2-methyl-3,4-dihydro-1H-pyrrolo[1,2-a]pyrazin-7-yl)amino]-6-(5-methyl-4-prop-2-enoyl-2,3-dihydroquinoxalin-1-yl)pyrido[2,3-d]pyrimidin-7-one]
18 | 0.5 to 2.5 µM | ≥ 2.5 µM | ≥ 2.5 µM | C=CC(=O)Nc1ccccc1Oc1cc2cnc(Nc3ccc(N4CCN(C)CC4)nc3)nc2n(C)c1=O [Compound 005]
19 | ≤ 0.25 µM | ≤ 0.25 µM |  | C=CC(=O)N1CCN(c2cc3cnc(Nc4ccc(N5CCC(O)CC5)cc4)nc3n(C)c2=O)c2cccc(C)c21 [Compound 027, 2-[4-(4-hydroxy-1-piperidyl)anilino]-8-methyl-6-(5-methyl-4-prop-2-enoyl-2,3-dihydroquinoxalin-1-yl)pyrido[2,3-d]pyrimidin-7-one]
20 | ≤ 0.25 µM | ≤ 0.25 µM |  | C=CC(=O)N1CCN(c2cc3cnc(Nc4ccccc4)nc3n([C@H]3C[C@H](O)C3)c2=O)c2cccc(C)c21 [Compound 070]
21 | ≤ 0.25 µM | ≤ 0.25 µM |  | C=CC(=O)N1CCN(c2cc3cnc(Nc4ccc(OCCN(C)C)cc4)nc3n([C@H]3C[C@@H](O)C3)c2=O)c2cccc(C)c21 [Compound 043]
22 | ≤ 0.25 µM | ≤ 0.25 µM |  | C=CC(=O)N1CCN(c2cc3cnc(N)nc3n(-c3ccc(OCCN(C)C)c(F)c3)c2=O)c2cccc(C)c21 [Compound 104, 2-amino-8-[4-[2-(dimethylamino)ethoxy]-3-fluoro-phenyl]-6-(5-methyl-4-prop-2-enoyl-2,3-dihydroquinoxalin-1-yl)pyrido[2,3-d]pyrimidin-7-one]
23 | ≥ 2.5 µM | ≥ 2.5 µM |  | C=CC(=O)N1CCN(c2cc3cnc(Nc4ccc(N5CCN(C)CC5)cc4)nc3n(C)c2=O)C(c2ccccc2)C1 (stereo not shown) [Compound 011, 8-methyl-2-[4-(4-methylpiperazin-1-yl)anilino]-6-(2-phenyl-4-prop-2-enoyl-piperazin-1-yl)pyrido[2,3-d]pyrimidin-7-one]
24 | ≤ 0.25 µM | ≤ 0.25 µM |  | C=CC(=O)N1CCN(c2cc3cnc(Nc4ccc(OCCN(C)C)cc4OC)nc3n(C)c2=O)c2cccc(C)c21 [Compound 068]

Reference: patent publication US20250221998A1, “DISCOVERY OF COVALENT EGFR INHIBITOR THROUGH CYSTEINE 775” (Dana-Farber Cancer Institute, Inc., priority 2022, published 2025)
